The values below are quoted from earlier work in patent US12253499B2, “Thin-layer chromatography system and method for assessing analyte concentrations in samples” (UCL BUSINESS LTD, priority 2017, dated 2025).

Like-named read-outs stand apart in the source and are kept apart here.

The conditions of data set [1]: relative to Irinotecan.
In another data set the target is T1, topoisomerase I (Homo sapiens, UniProt P11387).
T1 sequence (P11387 1-765): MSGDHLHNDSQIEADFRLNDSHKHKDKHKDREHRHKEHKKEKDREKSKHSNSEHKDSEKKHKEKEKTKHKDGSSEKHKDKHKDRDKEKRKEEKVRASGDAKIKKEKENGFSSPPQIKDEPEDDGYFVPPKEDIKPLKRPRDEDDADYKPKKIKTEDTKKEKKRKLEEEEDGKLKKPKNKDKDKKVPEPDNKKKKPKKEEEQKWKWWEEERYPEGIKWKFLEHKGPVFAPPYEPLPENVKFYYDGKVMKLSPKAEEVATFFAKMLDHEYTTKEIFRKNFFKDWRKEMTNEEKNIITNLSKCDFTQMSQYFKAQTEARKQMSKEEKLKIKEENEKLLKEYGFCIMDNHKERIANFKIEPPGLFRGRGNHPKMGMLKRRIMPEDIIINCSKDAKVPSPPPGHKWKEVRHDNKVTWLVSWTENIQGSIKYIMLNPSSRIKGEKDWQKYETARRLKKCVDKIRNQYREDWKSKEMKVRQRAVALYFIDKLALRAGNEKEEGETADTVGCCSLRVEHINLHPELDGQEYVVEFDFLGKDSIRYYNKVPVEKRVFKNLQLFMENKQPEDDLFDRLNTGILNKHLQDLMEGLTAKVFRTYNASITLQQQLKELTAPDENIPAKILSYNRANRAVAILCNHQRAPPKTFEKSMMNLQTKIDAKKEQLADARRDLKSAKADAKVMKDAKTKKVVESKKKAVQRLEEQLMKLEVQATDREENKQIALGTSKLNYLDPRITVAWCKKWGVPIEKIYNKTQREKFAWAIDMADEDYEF
Conditions: relative to Irinotecan.

For data set [2] the following is noted: for Therapeutic window / Therapeutic window (μg/mL): Leading candidate drugs for TDM.
For data set [3] the following is noted: inter-individual variability.
The mark [4] stands for this setting: Table D, In-depth list of candidate drugs.
Setting [5] is: Table D, In-depth list of candidate drugs, given as daily dose.

Turning to `CCc1c2c(nc3ccc(O)cc13)-c1cc3c(c(=O)n1C2)COC(=O)[C@]3(O)CC` [SN-38, 7-ethyl-10-hydroxycampto-thecin], the “concentration of SN-38 lower than that of Irinotecan” value in data set [1] was “over 30 times”. The “more potent at inhibiting topoisomerase I than the parent Irinotecan” value at topoisomerase I is listed as “up to 1,000”.
For `COc1c(C)c2c(c(O)c1C/C=C(\C)CCC(=O)O)C(=O)OC2` [Mycophenolic Acid], the Window in data set [2] (setting [4]) is 1 to 4 µg/mL. Besides, the “Therapeutic window” value in data set [2] (Table D) was 1 to 4 µg/mL.
`C1CCC(C(CC2CCCCN2)C2CCCCC2)CC1` (stereo not drawn) [Perhexeline]: in data set [2] (setting [4]), the Window was 0.3 to 4 µg/mL.
On to `Cn1c(=O)c2[nH]cnc2n(C)c1=O` [Theophylline], for which the Window in data set [2] (setting [4]) is 5 to 15 µg/mL.
For the molecule `CC[C@@H]([C@H](C)O)n1ncn(-c2ccc(N3CCN(c4ccc(OC[C@@H]5CO[C@@](Cn6cncn6)(c6ccc(F)cc6F)C5)cc4)CC3)cc2)c1=O` [Posaconazole], the Window in data set [2] (setting [4]) was around 0.7 µg/mL. Also, the “Therapeutic window (μg/mL)” value in data set [2] (Table D) is given as “Maintain at 0.7 μg/mL”.
As for `CCC1(c2ccccc2)C(=O)NCNC1=O` [Primidone], the Window in data set [2] (setting [4]) is 5 to 12 µg/mL.
Regarding “Certolizumab pegol: antibody for autoimmune diseases”, the Window in data set [2] (in vivo) is 3 to 84 µg/mL.
Regarding `COc1cc([C@@H]2c3cc4c(cc3[C@@H](O[C@@H]3O[C@@H]5CO[C@@H](C)O[C@H]5[C@H](O)[C@H]3O)[C@H]3COC(=O)[C@H]23)OCO4)cc(OC)c1O` [Etopisode], the “Therapeutic window” value in data set [2] (Table D) was 1 to 10 µg/mL.
As to `C=CC[C@@H]1/C=C(\C)C[C@H](C)C[C@H](OC)[C@H]2O[C@@](O)(C(=O)C(=O)N3CCCC[C@H]3C(=O)O[C@H](/C(C)=C/[C@@H]3CC[C@@H](O)[C@H](OC)C3)[C@H](C)[C@@H](O)CC1=O)[C@H](C)C[C@@H]2OC` [Tacrolimus], in data set [2] (setting [4]), the Window was 5 to 20 µg/mL.
In the case of `O=C(O)c1cn(C2CC2)c2cc(N3CCNCC3)c(F)cc2c1=O` [Ciprofloxacin], in data set [2] (setting [4]), the Window is 0.1 to 8.3 µg/mL. In addition, the “Therapeutic window” value in data set [2] (Table D) was 0.1 to 8.3 µg/mL.
Turning to Teicoplanin, the Window in data set [2] (setting [4]) is 10 to 60 µg/mL.
Consider `O=C1NC(=O)C(c2ccccc2)(c2ccccc2)N1` [Phenytoin], for which the Window in data set [2] (setting [4]) was 10 to 20 µg/mL.
For the molecule `CNC(=O)c1cc(Oc2ccc(NC(=O)Nc3ccc(Cl)c(C(F)(F)F)c3)cc2)ccn1` [sorafenib], in data set [2] (setting [5]), the Window is 800 mg/day.
As to `COc1cccc2c1C(=O)c1c(O)c3c(c(O)c1C2=O)C[C@@](O)(C(=O)CO)C[C@@H]3O[C@H]1C[C@H](N)[C@H](O)[C@H](C)O1` [Doxorubicin], the “Therapeutic window” value in data set [2] (Table D) was 10 to 58 µg/mL.
In the case of `CCCCc1oc2ccccc2c1C(=O)c1cc(I)c(OCCN(CC)CC)c(I)c1` [Amiodarone], the Window in data set [2] (setting [4]) was 0.5 to 2 µg/mL. In data set [2] (Table D), the “Therapeutic window (μg/mL)” value was 0.5-2^ μg/mL.
With `C#Cc1cccc(Nc2ncnc3cc(OCCOC)c(OCCOC)cc23)c1` [erlotinib], in data set [2] (setting [5]), the Window is 100 to 150 mg/day.
As for `O=c1[nH]cc(F)c(=O)[nH]1` [5-fluoruoracil, 5-fluorouracil], the Window in data set [2] (setting [4]) was 2000 to 3000 µg/mL. Moreover, the “Therapeutic window” value in data set [2] (Table D) was 2000 to 3000 µg/mL. Further, the “Plasma drug concentrations vary” value in data set [3] is on record as at most 100 fold.
Take `Nc1nnc(-c2cccc(Cl)c2Cl)c(N)n1` [Lamotrigine]: the Window in data set [2] (setting [4]) was 2.5 to 15 µg/mL.
In the case of `CC1(C)O[C@@H]2[C@@H](CO[C@@]3(COS(N)(=O)=O)OC(C)(C)O[C@@H]23)O1` [Topiramate], the Window in data set [2] (setting [4]) was 2 to 10 µg/mL.
On to `NCC[C@H](O)C(=O)N[C@@H]1C[C@H](N)[C@@H](O[C@H]2O[C@H](CN)[C@@H](O)[C@H](O)[C@H]2O)[C@H](O)[C@H]1O[C@H]1O[C@H](CO)[C@@H](O)[C@H](N)[C@H]1O` [Amikacin], for which, in data set [2] (setting [4]), the Window is 5 to 15 µg/mL.
In the case of `Cc1nc(Nc2ncc(C(=O)Nc3c(C)cccc3Cl)s2)cc(N2CCN(CCO)CC2)n1` [dasatinib], the Window in data set [2] (setting [4]) is around 0.05 µg/mL.
With `NC[C@H]1O[C@H](O[C@H]2[C@H](O)[C@@H](O[C@H]3O[C@H](CO)[C@@H](O)[C@H](N)[C@H]3O)[C@H](N)C[C@@H]2N)[C@H](N)C[C@@H]1O` [Tobramicin], the Window in data set [2] (setting [4]) is 2 to 10 µg/mL.
Take `CO[C@H]1C[C@@H]2CC[C@@H](C)[C@@](O)(O2)C(=O)C(=O)N2CCCC[C@H]2C(=O)O[C@H]([C@H](C)C[C@@H]2CC[C@@H](O)[C@H](OC)C2)CC(=O)[C@H](C)/C=C(\C)[C@@H](O)[C@@H](OC)C(=O)[C@H](C)C[C@H](C)/C=C/C=C/C=C/1C` [Sirolimus]: the Window in data set [2] (setting [4]) was 0.005 to 0.01 µg/mL.
With `CN1C(=O)CC(=O)N(c2ccccc2)c2cc(Cl)ccc21` [Clobazam], the Window entry in data set [2] (setting [4]) is listed as “Varies, 0.2-5 ug/mL”.
`CC(C)N(CCC(C(N)=O)(c1ccccc1)c1ccccn1)C(C)C` (stereo not drawn) [Disopyramide]: the Window in data set [2] (setting [4]) was 2 to 4 µg/mL.
`CCCC(CCC)C(=O)O` [Valproic acid]: in data set [2] (setting [4]), the Window was 50 to 125 µg/mL.
As to `O=C(O)c1ccccc1O` [Salicylate], the Window in data set [2] (setting [4]) was 15 to 30 µg/mL. In addition, the “Therapeutic window” value in data set [2] (Table D) was 15 to 30 µg/mL.
For the molecule `CC(=O)NC[C@H]1CN(c2ccc(N3CCOCC3)c(F)c2)C(=O)O1` [Linezolid], the Window in data set [2] (setting [4]) is 1.75 to 7.53 µg/mL. The “Therapeutic window” value in data set [2] (Table D) is 1.8 to 7.5 µg/mL.
`CCC(C)n1ncn(-c2ccc(N3CCN(c4ccc(OCC5COC(Cn6cncn6)(c6ccc(Cl)cc6Cl)O5)cc4)CC3)cc2)c1=O` (stereo not drawn) [Itraconazole]: the Window in data set [2] (setting [4]) was 0.5 to 17 µg/mL. In data set [2] (Table D), the “Therapeutic window” value was 0.5 to 17 µg/mL.
Consider “retuximab: cancer drug listed in Table D; not natively fluorescent, requires label”, for which the Window result in data set [2] (in vivo) is given as “Maintain at 375 mg/m^2”.
As to `[Li]` [Lithium], in data set [2] (setting [4]), the Window is given as 0.6-1.2 mEq/L.
As for `CC[C@@H](C(N)=O)N1CCCC1=O` [Levetiracetam], the Window in data set [2] (setting [4]) is 10 to 40 µg/mL; in data set [2] (Table D, In-depth list of candidate drugs, listed as Leveltiracetam), 20 to 40 µg/mL.
With `Cc1ccsc1C(=CCCN1CCC[C@@H](C(=O)O)C1)c1sccc1C` [Tiagibine], the Window in data set [2] (setting [4]) is 0.02 to 0.2 µg/mL.
In the case of Adalimumab, in data set [2] (in vivo), the Window was 3.5 to 7 µg/mL.
Take `NC(=O)N1c2ccccc2C=Cc2ccccc21` [Carbamazepine]: the Window in data set [2] (setting [4]) was 5 to 10 µg/mL.
On to `O=C1CN=C(c2ccccc2)c2cc([N+](=O)[O-])ccc2N1` [Nitrazepam], for which the Window in data set [2] (setting [4]) was 0.03 to 0.1 µg/mL.
For `Cc1cccc(C)c1OCC(C)N` (stereo not drawn) [Mexiletine], the Window in data set [2] (setting [4]) is 0.5 to 2.5 µg/mL. Also, in data set [2] (Table D), the “Therapeutic window” value is 0.5 to 2.5 µg/mL.
Take `CCN(CC)CCNC(=O)c1ccc(NC(C)=O)cc1` [NAPA]: the Window in data set [2] (setting [4]) is 4 to 8 µg/mL. Besides, the “Therapeutic window” value in data set [2] (Table D) is 4 to 8 µg/mL.
`O=C1CN=C(c2ccccc2Cl)c2cc([N+](=O)[O-])ccc2N1` [Clonazepam]: in data set [2] (setting [4]), the Window is 20 to 80 µg/mL.
On to `NCC1(CC(=O)O)CCCCC1` [Gabapentin], for which the Window in data set [2] (setting [4]) is 2 to 20 µg/mL.
On to `CN[C@H](CC(C)C)C(=O)N[C@H]1C(=O)N[C@@H](CC(N)=O)C(=O)N[C@H]2C(=O)N[C@H]3C(=O)N[C@H](C(=O)N[C@H](C(=O)O)c4cc(O)cc(O)c4-c4cc3ccc4O)[C@H](O)c3ccc(c(Cl)c3)Oc3cc2cc(c3O[C@@H]2O[C@H](CO)[C@@H](O)[C@H](O)[C@H]2O[C@H]2C[C@](C)(N)[C@H](O)[C@H](C)O2)Oc2ccc(cc2Cl)[C@H]1O` [Vancomycin], for which the Window in data set [2] (setting [4]) is 10 to 20 µg/mL.
On to `NS(=O)(=O)Cc1noc2ccccc12` [Zonisamide], for which, in data set [2] (setting [4]), the Window is 10 to 40 µg/mL.
As for `C=C[C@H]1C[N@@]2CC[C@H]1C[C@@H]2[C@@H](O)c1ccnc2ccc(OC)cc12` [Quinidine], the Window in data set [2] (setting [4]) is 2 to 5 µg/mL. For the same molecule, in data set [2] (Table D), the “Therapeutic window” value was 2 to 5 µg/mL.
For `CCN(CC)CC(=O)Nc1c(C)cccc1C` [Lidocaine], the Window in data set [2] (setting [4]) is 1.5 to 5 µg/mL.
`CS(=O)(=O)OCCCCOS(C)(=O)=O` [Busulfan]: in data set [2] (setting [4]), the Window is 0.9 to 1 µg/mL.
For “Infliximab: antibody for autoimmune diseases”, the Window in data set [2] (in vivo) is around 3.8 µg/mL.
Turning to `NC(=O)OCC(COC(N)=O)c1ccccc1` [Felbamate], the Window in data set [2] (setting [4]) was 50 to 110 µg/mL.
`C=CC(N)CCC(=O)O` (stereo not drawn) [Vigabratin]: in data set [2] (setting [4]), the Window was 0.8 to 36 µg/mL.
Turning to `CCC1(C)CC(=O)NC1=O` (stereo not drawn) [Ethosuximide], the Window in data set [2] (setting [4]) is 40 to 100 µg/mL.
